From patent US20110144331A1, “Cinnoline Compounds for the Treatment of Anxiety, Cognitive and Mood Disorders” (AstraZeneca AB, priority 2005, published 2011)

Assays:
[1] = biological target: T1, human α1β2γ2 GABAA receptor (Homo sapiens, UniProt P14867+P18507); experiment: Two-electrode voltage-clamp in Xenopus oocytes, potentiation of GABA EC10 current, GABAA1; type: cell-based; conditions: percentage potentiation of GABA EC10 current divided by that of diazepam control
T1 construct: expressed in transfected cells; host or cells: Xenopus laevis oocytes injected with capped cRNA
T1 sequence (P14867 28-456): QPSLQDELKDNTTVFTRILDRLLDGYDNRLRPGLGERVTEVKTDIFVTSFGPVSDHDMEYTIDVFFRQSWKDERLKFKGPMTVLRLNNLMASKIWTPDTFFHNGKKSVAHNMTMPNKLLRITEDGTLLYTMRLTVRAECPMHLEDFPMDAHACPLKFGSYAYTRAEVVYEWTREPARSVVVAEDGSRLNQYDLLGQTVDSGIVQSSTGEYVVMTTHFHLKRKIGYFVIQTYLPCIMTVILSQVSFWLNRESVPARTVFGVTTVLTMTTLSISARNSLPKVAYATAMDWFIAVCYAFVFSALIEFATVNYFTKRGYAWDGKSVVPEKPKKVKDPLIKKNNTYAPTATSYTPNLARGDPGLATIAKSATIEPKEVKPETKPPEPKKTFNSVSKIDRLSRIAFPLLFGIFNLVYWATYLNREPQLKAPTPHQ
T1 sequence (P47870 25-512 partner limits assumed): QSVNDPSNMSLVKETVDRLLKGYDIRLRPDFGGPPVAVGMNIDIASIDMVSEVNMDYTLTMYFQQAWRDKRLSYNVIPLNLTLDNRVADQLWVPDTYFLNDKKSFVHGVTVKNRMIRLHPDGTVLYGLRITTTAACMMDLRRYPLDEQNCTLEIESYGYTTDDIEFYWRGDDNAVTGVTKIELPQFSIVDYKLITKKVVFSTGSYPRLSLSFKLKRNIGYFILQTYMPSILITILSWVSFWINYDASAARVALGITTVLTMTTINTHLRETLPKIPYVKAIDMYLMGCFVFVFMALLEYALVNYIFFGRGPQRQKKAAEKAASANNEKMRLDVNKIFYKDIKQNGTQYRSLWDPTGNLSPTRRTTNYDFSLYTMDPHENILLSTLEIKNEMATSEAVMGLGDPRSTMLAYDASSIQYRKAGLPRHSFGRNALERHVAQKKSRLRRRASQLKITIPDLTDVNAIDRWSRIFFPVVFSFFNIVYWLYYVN
T1 sequence (P18507 40-475): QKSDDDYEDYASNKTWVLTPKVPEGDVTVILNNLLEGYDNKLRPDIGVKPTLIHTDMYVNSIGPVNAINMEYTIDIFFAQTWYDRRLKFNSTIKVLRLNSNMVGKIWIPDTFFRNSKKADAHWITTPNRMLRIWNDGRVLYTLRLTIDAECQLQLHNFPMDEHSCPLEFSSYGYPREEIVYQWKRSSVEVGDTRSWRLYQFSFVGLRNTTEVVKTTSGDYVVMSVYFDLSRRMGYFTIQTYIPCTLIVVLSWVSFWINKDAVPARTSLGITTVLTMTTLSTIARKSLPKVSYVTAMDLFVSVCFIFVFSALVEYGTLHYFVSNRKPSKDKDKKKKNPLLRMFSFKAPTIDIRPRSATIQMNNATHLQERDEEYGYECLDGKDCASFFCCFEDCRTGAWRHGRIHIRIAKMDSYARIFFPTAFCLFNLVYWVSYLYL
Protocol: (§1) GABAA receptors were heterologously expressed in Xenopus oocytes by injecting cRNA corresponding to human α1, α2, α3, α5, β2, β3 and γ2 subunits of the GABAA receptor genes. The specific subunit combinations (subtypes) were as follows: α1β2γ2, α2β3γ2, α3β3γ2, and α5β3γ2. The EC10 of GABA was approximated for each cell. Stability of GABA-mediated (EC10) current was established. Modulatory effect of test compound was determined and compared across subtypes. […] Thus, the assay can characterize modulatory effects and determine subtype selectivity of test compounds on major subtypes of GABAA receptors.
(§2) Surgically removed ovarian lobes were teased out in OR2 solution (82 NaCl, 2.5 KCl, 5 HEPES, 1.5 NaH2PO4, 1 MgCl2, 0.1 EDTA, in mM, pH 7.4). The oocytes were defolliculated by incubation in 25 mL OR2 containing 0.2% collagenase 1A (SIGMA) two times for about 60 minutes on a platform shaker and stored in Leibovitz's L-15 medium. Oocytes were injected the following day in 0.5× Leibovitz's L-15 medium containing […] gentamycin, 10 units/ml penicillin, and […] streptomycin.
(§3) Capped cRNAs from the linearized vectors containing human α1, β2 and γ2 subunits of the GABAA receptor genes were mixed in ratio of 1:1:30. Oocytes were injected with 25-50 nL of mixed RNA with an appx molar ratio for α1, β2, and γ2 as 1:1:10. Oocyte recordings were done 2-10 days after injection. The same methods apply to subtypes derived from α2β2γ2, α3β3γ2, and α5β3γ2, except for 1:1:1 ratio was used for α, β, and γ subunits.
(§4) All measurements were done in a medium containing ND-96 (96 NaCl, 2 KCl, 1.8 CaCl2.2H2O, 1 MgCl2.6H2O, 5 HEPES, in mM, pH 7.5). Two-electrode voltage-clamp recording was carried out using OpusXpress amplifier (Axon Instruments, Foster City, Calif.), which allows simultaneous recording from 8 oocytes. Oocytes were impaled with two electrodes of 1-2 MΩ tip resistance when filled with 3M KCl. Recordings were begun when membrane potential became stable at potentials negative to −50-−60 mV. Membrane potential was held at −60 mV. […] The concentration of GABA corresponded to the EC10 value calculated for each oocyte. The modulator pulses started 30 s before the GABA pulse so as to allow preincubation with the modulator. A set of 3 pulses with just GABA without modulator was given prior to the modulator-containing pulses to define the baseline GABA response. Two oocytes per each experiment were dedicated to observe the effect of diazepam on GABA response to ensure the presence of γ2 subunit in the GABAA pentameric complex, which imparts diazepam sensitivity to the complex.
(§5) Current amplitude (i) was measured from baseline to peak using Clampfit (Axon Inst., Foster City, Calif.). Potentiation was calculated as percent change from the baseline GABA current flux 100×(imod/icontrol)−1) where imod=current mediated by modulator+GABA and icontrol=current mediated by GABA alone. […] Similarly, a value of −50% potentiation means the presence of modulator caused a 50% decrease in the control current. Various other data shown here were fitted and plotted using GraphPad Prism (GraphPad Software, Inc. San Diego, Calif.). The percentage potentiation was converted to relative potentiation by dividing it with percentage potentiation value obtained from the same assay with diazepam as a control.

[2] = biological target: T2, human α2β3γ2 GABAA receptor (Homo sapiens, UniProt P18507+P47869); experiment: Two-electrode voltage-clamp in Xenopus oocytes, potentiation of GABA EC10 current, GABAA2; type: cell-based; conditions: percentage potentiation of GABA EC10 current divided by that of diazepam control
T2 construct: expressed in transfected cells; host or cells: Xenopus laevis oocytes injected with capped cRNA (α:β:γ 1:1:1)
T2 sequence (P47869 29-451): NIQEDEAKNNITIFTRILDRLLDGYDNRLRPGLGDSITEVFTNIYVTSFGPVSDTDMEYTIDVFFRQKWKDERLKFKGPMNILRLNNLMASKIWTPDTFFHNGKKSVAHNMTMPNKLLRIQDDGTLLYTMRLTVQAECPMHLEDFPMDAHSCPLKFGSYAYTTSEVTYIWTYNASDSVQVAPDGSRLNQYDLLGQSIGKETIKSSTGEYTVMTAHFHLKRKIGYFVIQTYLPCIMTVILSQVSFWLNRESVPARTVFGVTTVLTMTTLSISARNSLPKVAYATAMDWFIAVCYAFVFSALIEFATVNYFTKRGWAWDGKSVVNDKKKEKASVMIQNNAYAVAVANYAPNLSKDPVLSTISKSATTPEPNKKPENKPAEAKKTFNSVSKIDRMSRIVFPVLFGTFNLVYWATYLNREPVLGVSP
T2 sequence (P18507 40-475): as the sequence (P18507 40-475) above
T2 sequence (P28472 26-473 partner): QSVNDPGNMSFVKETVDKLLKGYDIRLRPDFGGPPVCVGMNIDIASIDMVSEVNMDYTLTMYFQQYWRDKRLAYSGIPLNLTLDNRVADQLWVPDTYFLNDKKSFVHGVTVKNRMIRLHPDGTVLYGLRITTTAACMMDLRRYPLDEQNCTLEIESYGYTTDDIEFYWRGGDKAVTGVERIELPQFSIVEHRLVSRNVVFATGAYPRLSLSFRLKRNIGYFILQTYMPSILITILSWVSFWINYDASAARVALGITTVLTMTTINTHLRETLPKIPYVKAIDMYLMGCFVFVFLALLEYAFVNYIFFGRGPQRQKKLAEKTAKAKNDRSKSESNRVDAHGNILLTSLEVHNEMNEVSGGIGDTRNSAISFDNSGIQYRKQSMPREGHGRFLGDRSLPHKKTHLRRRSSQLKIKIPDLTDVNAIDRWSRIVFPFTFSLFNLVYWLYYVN
Protocol: as §1, §2, §3, §4, §5

Row | SMILES | Relative Potentiation for GABAA1 [1] | Relative Potentiation for GABAA2 [2]
1 | CCCNC(=O)c1nnc2c(-c3cc(C)ccc3F)cccc2c1N | 0.095 | 0.37
2 | CCCNC(=O)c1nnc2c(-c3cnccc3C)cccc2c1N | 0.083 | 0.11
3 | CCCNC(=O)c1nnc2c(-c3ccsc3)cccc2c1N | −0.26 | 0.038
4 | CCCNC(=O)c1nnc2c(-c3cc(Cl)cc(Cl)c3)cccc2c1N | 0.28 | 0.48
5 | Nc1c(C(=O)NCC2CC2)nnc2c(-c3ccccc3)cccc12 | 0.11 | 0.24
6 | CCCNC(=O)c1nnc2c(-c3ccc(OC)cc3OC)cccc2c1N | 0.18 | 0.15
7 | CCCNC(=O)c1nnc2c(-c3cccnc3)cccc2c1N | −0.11 | 0.054
8 | COc1cccc(F)c1-c1cccc2c(N)c(C(=O)NC3CC3)nnc12 | −0.048 | 0.16
9 | CCCNC(=O)c1nnc2c(-c3cccc(F)c3F)cccc2c1N | −0.11 | 0.17
10 | CCCNC(=O)c1nnc2c(-c3cccc(OC(F)(F)F)c3)cccc2c1N | 0.87 | 0.48
11 | COc1ccc(F)cc1-c1cccc2c(N)c(C(=O)NC3CC3)nnc12 | −0.028 | 0.357
12 | CCCCNC(=O)c1nnc2c(-c3cnc(OC)nc3OC)cccc2c1N | 0.16 | 0.45
13 | CCCNC(=O)c1nnc2c(-c3cccc(Cl)c3)cccc2c1N | 0.18 | 0.53
14 | CCCNC(=O)c1nnc2c(-c3ccc(OC)nc3)cccc2c1N | −0.08 | 0.16
15 | CCCNC(=O)c1nnc2c(-c3ccc(OC)c(OC)c3OC)cccc2c1N | 0.47 | 0.33
16 | CCCNC(=O)c1nnc2c(-c3ccc(C)nc3F)cccc2c1N | 0.053 | 0.27
17 | Cc1ccc(-c2cccc3c(N)c(C(=O)NC4CC4)nnc23)cn1 | −0.166 | 0.074
18 | CCCNC(=O)c1nnc2c(-c3ccc(OC(F)(F)F)cc3)cccc2c1N | 0.32 | 0.04
19 | CCCNC(=O)c1nnc2c(-c3cccnc3F)cccc2c1N | −0.083 | 0.17
20 | CCCNC(=O)c1nnc2c(-c3ccc4ccccc4c3)cccc2c1N [drawing 381] | 0.22 | 0.09
21 | CCCNC(=O)c1nnc2c(-c3cccc(OC)c3F)c(F)ccc2c1N | 0.05 | 0.23
22 | CCCNC(=O)c1nnc2c(-c3cccc(Cl)c3Cl)cccc2c1N | 0.067 | 0.053
23 | CCCNC(=O)c1nnc2c(-c3cc(F)ccc3F)cccc2c1N | −0.078 | 0.29
24 | CCCNC(=O)c1nnc2c(-c3cc(F)c(OC)cc3F)cccc2c1N | 0.016 | 0.21
25 | CCCNC(=O)c1nnc2c(-c3ccc(OC)cc3C(F)(F)F)cccc2c1N | 0.12 | 0.16
26 | CCCNC(=O)c1nnc2c(-c3ccccn3)cccc2c1N | 0.027 | −0.032

Row | SMILES | Relative Potentiation for GABAA1 [1] | Relative Potentiation for GABAA2 [2]
27 | CCCNC(=O)c1nnc2c(-c3ccc(OC)cc3)cccc2c1N | −0.11 | 0.06
28 | CCCNC(=O)c1nnc2c(-c3ccncc3)cccc2c1N | −0.038 | 0.1
29 | CCCNC(=O)c1nnc2c(-c3ccc(Cl)cc3)c(F)ccc2c1N | 0.02 | 0.19
30 | CCCNC(=O)c1nnc2c(-c3cc(OC)cc(OC)c3)cccc2c1N | 0.28 | 0.57
31 | CCCCNC(=O)c1nnc2c(-c3cnccc3OC)cccc2c1N | 0.2 | 0.52
32 | CCCNC(=O)c1nnc2c(-c3cnc4ccccc4c3)cccc2c1N | −0.15 | 0.11
33 | CCCNC(=O)c1nnc2c(-c3ccc(F)cc3F)cccc2c1N | −0.088 | 0.12
34 | CCCNC(=O)c1nnc2c(-c3ccc(OC)cc3F)cccc2c1N | 0 | 0.12
35 | CCCNC(=O)c1nnc2c(-c3cccc(S(C)(=O)=O)c3)cccc2c1N | 0.34 | 0.26
36 | CCCNC(=O)c1nnc2c(-c3cccc(C(=O)N4CCC4)c3)cccc2c1N | 0.19 | −0.0075
37 | CCCNC(=O)c1nnc2c(-c3cnccn3)cccc2c1N | −0.067 | −0.01
38 | CCCNC(=O)c1nnc2c(-c3cccc(C(=O)O)c3)cccc2c1N | −0.038 | 0.08
39 | CCCNC(=O)c1nnc2c(-c3ccc(OC)cc3F)c(F)ccc2c1N | 0.053 | 0.18
40 | CCCNC(=O)c1nnc2c(-c3cc(F)ccc3C)cccc2c1N | 0.02 | 0.22
41 | CCNC(=O)c1nnc2c(-c3cnc(OC)c(F)c3)cccc2c1N | −0.010 | 0.223
42 | CCCNC(=O)c1nnc2c(-c3ccc(F)c(F)c3)cccc2c1N | −0.14 | 0.12
43 | CCCNC(=O)c1nnc2c(-c3cc(OC)ccc3C)cccc2c1N | 0.1 | 0.22
44 | CCCNC(=O)c1nnc2c(-c3cnc(OC)c(F)c3)cccc2c1N | −0.012 | 0.14
45 | CCCNC(=O)c1nnc2c(-c3cnn(C)c3)cccc2c1N | −0.16 | 0.16
46 | CCCNC(=O)c1nnc2c(-c3cc(Cl)ccc3Cl)cccc2c1N | 0.12 | 0.21
47 | CCCNC(=O)c1nnc2c(-c3ccc(F)cc3OC)c(F)ccc2c1N | −0.028 | 0.18
48 | CCCNC(=O)c1nnc2c(-c3cccc(OC)c3F)cccc2c1N | 0.045 | 0.26
49 | CCCNC(=O)c1nnc2c(-c3cc(OC)c(OC)c(OC)c3)cccc2c1N | 0.4 | 0.67
50 | CCCNC(=O)c1nnc2c(-c3cc(C)c(OC)c(C)c3)cccc2c1N | 0.79 | 0.32
51 | CCCNC(=O)c1nnc2c(-c3cc(C(F)(F)F)cc(C(F)(F)F)c3)cccc2c1N | 0.44 | 0.13
52 | CCCNC(=O)c1nnc2c(-c3ccc(OC)c(OC)c3)cccc2c1N | 0.33 | 0.28
